# System: platelet aggregation that is mediated by αIIbβ3
# Experiment: Inhibition of ADP-induced platelet aggregation in platelet-rich plasma
# Type: cell-based
# Details: PRP
# Procedure: Disintegrin (Rho) variants were also tested for their ability to inhibit platelet aggregation that is mediated by αIIbβ3. Venous blood (9 parts) samples from healthy donors who had not received any medication for at least two weeks were collected in 3.8% sodium citrate (1 part). Blood samples were centrifuged at 150×g for 10 min to obtain platelet-rich plasma (PRP) and allowed to stand for 5 min, and PRP was collected. The platelet-poor plasma (PPP) was prepared from the remaining blood by centrifuging at 2000×g for 25 min. The PPP platelet count was measured on a hematology analyzer and diluted to 250,000 platelets/μl. A solution of 190 μl of PRP and 10 μl of either Rho or PBS buffer were incubated for 5 min in a Hema Tracer 601 aggregometer at 37° C. Ten microliters of 200 μM adenosine diphosphate (ADP) were further added to monitor the response of platelet aggregation by light transmission.
substance,measurement,value
"rhodostomin [Rho wild-type, reference compound]",IC50,83.2 nM

# Reference: patent publication US10870684B2, “Disintegrin variants and pharmaceutical uses thereof” (National Cheng Kung University, priority 2014, dated 2020)
